# Measured values taken from patent US20210059959A1, “USE OF CANNABINOIDS IN THE TREATMENT OF MENTAL DISORDERS” (GW Pharma Limited, priority 2015, published 2021).
# How the values were obtained:
# [1] = tested on: patients with bipolar affective disorder; conditions: two female patients, 30 days; one with olanzapine as adjunct, one CBD monotherapy; cited from earlier work
# [2] = tested on: participants with schizophrenia or related psychotic disorder; experiment: Positive and Negative Syndrome Scale (PANSS), double-blind placebo-controlled study of CBD as adjunctive therapy; format: in vivo, human
# Experimental: (§1) Example 1 below describes the use of a highly purified cannabis extract comprising cannabidiol (CBD) in a human clinical trial. Example 1 describes data produced in a double-blind, randomised, placebo-controlled, parallel group study of highly purified CBD as adjunctive therapy in first line treatment of schizophrenia or related psychotic disorder.
# (§2) An eight-week, multi-centre, double-blind, randomised, placebo-controlled, parallel group study was conducted with the aim to determine the efficacy, safety and tolerability of highly purified CBD as adjunctive therapy in first line treatment of schizophrenia or related psychotic disorder.
# (§3) This study evaluated the efficacy of highly purified CBD compared with placebo on the participant's PANSS Total score, ‘P’, ‘N’, ‘G’, SANS and BACS scores.
# (§4) Changes from baseline in PANSS scores (Total, ‘P’, ‘N’ and ‘G’), SANS and BACS were recorded at the start of the study (baseline) and at the end of treatment (after 6 weeks treatment with CBD or placebo).
# (§5) For inclusion in the study participants were required to be male or female aged 18 to 65 years, diagnosed with schizophrenia or a related psychotic disorder (such as schizoaffective or schizophreniform disorder) as defined by the Diagnostic and Statistical Manual of Mental Disorders Version 4. Participants must have been treated for a minimum of four-weeks and be on a stable dose of their current antipsychotic medication. […] A PANSS score in excess of 60 infers that the patient has symptoms related to schizophrenia or related disorders.
# (§6) The participants were randomised to one of two treatment groups which each consisted of 39 participants. Treatment was administered as either 5 ml CBD (100 mg/ml) oral solution to be taken twice daily or 5 ml matched placebo oral solution to be taken twice daily.
# Positive and Negative Syndrome Scale (PANSS)
# The PANSS is a medical scale completed by a trained rater and is used for measuring symptom severity of participants with schizophrenia or related psychotic disorder. The name refers to the two types of symptoms in schizophrenia, as defined by the American Psychiatric Association: positive symptoms, which refer to an excess or distortion of normal functions (e.g. hallucinations and delusions), and negative symptoms, which represent a diminution or loss of normal functions.
# It is a 30 item rating instrument that assesses the positive and negative symptoms of schizophrenia as well as symptoms of general psychopathology. A PANSS Total score is derived from the sum of the 30 items and the PANSS items are also grouped into three subscales: Positive (‘P’), Negative (‘N’), and General (‘G’). Individual items are rated on a seven point scale, where 1=absent and 7=extreme. This scale was measured at each assessment visit (Visit 1-4).
# The minimum score PANSS scoring system is 30 and patients with a score of higher than 60 are considered to still be suffering psychotic symptoms.
# PANSS ‘P’ scale measures the severity of: • i) Delusions • ii) Conceptual disorganisation • iii) Hallucinations • iv) […] • v) Grandiosity • vi) Suspiciousness/persecution • vii) Hostility
# PANSS ‘N’ scale measures the severity of: • i) Blunted affect • ii) Emotional withdrawal • iii) Poor rapport • iv) Passive/apathetic social withdrawal • v) Difficulty in abstract thinking • vi) Lack of spontaneity and flow of conversation • vii) Stereotyped thinking
# PANSS ‘G’ psychopathology scale measures the severity of: • i) Somatic concern • ii) Anxiety • iii) Guilt feelings • iv) Tension • v) Mannerisms and posturing • vi) Depression • vii) Motor retardation • viii) Uncooperativeness • ix) Unusual thought content • x) Disorientation • xi) Poor attention • xii) Lack of judgment and insight • xiii) Disturbance of volition • xiv) Poor impulse control • xv) Preoccupation • xvi) Active social avoidance
# [3] = tested on: participants with schizophrenia or related psychotic disorder; experiment: Brief Assessment of Cognition in Schizophrenia (BACS), double-blind placebo-controlled study of CBD as adjunctive therapy; format: in vivo, human; conditions: all patients
# Experimental: as §1, §2, §3, §4, §5, §6
# Brief Assessment of Cognition in Schizophrenia (BACS)
# The BACS is an instrument used to assess the aspects of cognition found to be most impaired and most strongly correlated with outcome in participants with schizophrenia or related psychotic disorder. The BACS yields a high completion rate in participants with schizophrenia or related psychotic disorder.
# The BACS consists of six domains: verbal memory; working memory; motor speed; verbal fluency; attention and speed information processing and executive functions. A score is obtained for each domain and a composite summary score is also calculated as the average of the scores from the six domains. An increase in score is indicative of an improvement in cognition.
# This instrument was assessed at each assessment visit (Visits 1-4).
# [4] = CBD adjunct, 6 weeks, all patients
# [5] = CBD adjunct, 6 weeks, patients on amisulpride
# [6] = CBD adjunct, 6 weeks, patients on aripiprazole
# [7] = CBD adjunct, 6 weeks, patients on olanzapine
# [8] = CBD adjunct, 6 weeks, patients on other antipsychotics
# [9] = CBD adjunct, 6 weeks, patients on quetiapine
# [10] = CBD adjunct, 6 weeks, patients on risperidone
smiles,measurement,setting,value
"C=C(C)[C@@H]1CCC(C)=C[C@H]1c1c(O)cc(CCCCC)cc1O [CBD, Cannabidiol]",Efficacy in bipolar affective disorder,[1],ineffective
same,"Change in baseline scores, PANSS total score",[2]; [4],−11.4
same,"Change in baseline scores, PANSS ‘G’ score",[2]; [4],−5.3
same,"Change in baseline scores, PANSS ‘N’ score",[2]; [4],−3.1
same,"Change in baseline scores, PANSS ‘P’ score",[2]; [4],−3.1
same,"Change in baseline scores, PANSS total",[2]; [5],−11.3
same,"Change in baseline scores, PANSS ‘P’ score",[2]; [5],−4.0
same,"Change in baseline scores, PANSS total",[2]; [6],−12.3
same,"Change in baseline scores, PANSS ‘P’ score",[2]; [6],−3.8
same,"Change in baseline scores, PANSS total",[2]; [7],−17.5
same,"Change in baseline scores, PANSS ‘P’ score",[2]; [7],−3.9
same,"Change in baseline scores, PANSS total",[2]; [8],−10.3
same,"Change in baseline scores, PANSS ‘P’ score",[2]; [8],−1.4
same,"Change in baseline scores, PANSS total",[2]; [9],−7.5
same,"Change in baseline scores, PANSS ‘P’ score",[2]; [9],−1.7
same,"Change in baseline scores, PANSS total",[2]; [10],−7.8
same,"Change in baseline scores, PANSS ‘P’ score",[2]; [10],−2.6
same,"Responder status for change in baseline scores, PANSS ‘P’ score","[2]; CBD adjunct, patients with >= 20% change from baseline, P = 0.0679 vs placebo",42.9%
same,"Responder status for change in baseline scores, PANSS total score","[2]; CBD adjunct, patients with >= 20% change from baseline, P = 0.0896 vs placebo",28.6%
same,"Responder status for change in baseline scores, PANSS ‘G’ score","[2]; CBD adjunct, patients with >= 20% change from baseline, P = 0.2598 vs placebo",28.6%
same,"Responder status for change in baseline scores, PANSS ‘N’ score","[2]; CBD adjunct, patients with >= 20% change from baseline, P = 0.7951 vs placebo",26.2%
same,"Change in baseline scores, PANSS ‘P’ score: difference","[2]; CBD vs placebo, all patients, P = 0.0188",(−1.4)
same,"Change in baseline scores, PANSS total score: difference","[2]; CBD vs placebo, all patients, P = 0.1332",(−2.8)
same,"Change in baseline scores, PANSS ‘G’ score: difference","[2]; CBD vs placebo, all patients, P = 0.1963",(−1.3)
same,"Change in baseline scores, PANSS ‘N’ score: difference","[2]; CBD vs placebo, all patients, P = 0.8841",(−0.1)
same,"Change in baseline scores, PANSS total: difference","[2]; CBD vs placebo, patients on amisulpride, P = 0.5543",(7.9)
same,"Change in baseline scores, PANSS ‘P’ score: difference","[2]; CBD vs placebo, patients on amisulpride, P = 0.8241",(−0.5)
same,"Change in baseline scores, PANSS ‘P’ score: difference","[2]; CBD vs placebo, patients on aripiprazole, P = 0.0345",(−3.1)
same,"Change in baseline scores, PANSS total: difference","[2]; CBD vs placebo, patients on aripiprazole, P = 0.1220",(−6.2)
same,"Change in baseline scores, PANSS total: difference","[2]; CBD vs placebo, patients on olanzapine, P = 0.0067",(−10.7)
same,"Change in baseline scores, PANSS ‘P’ score: difference","[2]; CBD vs placebo, patients on olanzapine, P = 0.1434",(−1.5)
same,"Change in baseline scores, PANSS total: difference","[2]; CBD vs placebo, patients on other antipsychotics, P = 0.2746",(−10.6)
same,"Change in baseline scores, PANSS ‘P’ score: difference","[2]; CBD vs placebo, patients on other antipsychotics, P = 0.9550",(−0.2)
same,"Change in baseline scores, PANSS total: difference","[2]; CBD vs placebo, patients on quetiapine, P = 0.6640",(5.1)
same,"Change in baseline scores, PANSS ‘P’ score: difference","[2]; CBD vs placebo, patients on quetiapine, P = 0.7905",(0.6)
same,"Change in baseline scores, PANSS ‘P’ score: difference","[2]; CBD vs placebo, patients on risperidone, P = 0.4625",(−0.8)
same,"Change in baseline scores, PANSS total: difference","[2]; CBD vs placebo, patients on risperidone, P = 0.6470",(1.8)
same,"Change in baseline scores, BACS composite score","[3]; CBD adjunct, 6 weeks",3.5
same,"Change in baseline scores, BACS sub-domain 1 Verbal memory","[3]; CBD adjunct, 6 weeks",2.1
same,"Change in baseline scores, BACS sub-domain 2 Working memory","[3]; CBD adjunct, 6 weeks",1.8
same,"Change in baseline scores, BACS sub-domain 3 Motor speed","[3]; CBD adjunct, 6 weeks",6.2
same,"Change in baseline scores, BACS sub-domain 4 Verbal fluency","[3]; CBD adjunct, 6 weeks",4.3
same,"Change in baseline scores, BACS sub-domain 5 Attention and speed information processing","[3]; CBD adjunct, 6 weeks",4.4
same,"Change in baseline scores, BACS sub-domain 6 Executive function","[3]; CBD adjunct, 6 weeks",2.0
same,"Change in baseline scores, BACS sub-domain 3 Motor speed: difference","[3]; CBD vs placebo, P = 0.0439",(4.2)
same,"Change in baseline scores, BACS composite score: difference","[3]; CBD vs placebo, P = 0.0677",(1.3)
same,"Change in baseline scores, BACS sub-domain 6 Executive function: difference","[3]; CBD vs placebo, P = 0.0682",(1.4)
same,"Change in baseline scores, BACS sub-domain 2 Working memory: difference","[3]; CBD vs placebo, P = 0.1414",(1.0)
same,"Change in baseline scores, BACS sub-domain 5 Attention and speed information processing: difference","[3]; CBD vs placebo, P = 0.5915",(0.9)
same,"Change in baseline scores, BACS sub-domain 4 Verbal fluency: difference","[3]; CBD vs placebo, P = 0.8059",(0.4)
same,"Change in baseline scores, BACS sub-domain 1 Verbal memory: difference","[3]; CBD vs placebo, P = 0.9933",(0.1)
